Each structure is given as a SMILES string. pIC50: −log10 of the molar value.

In assay [1] the target is RNR (RNR1:RNR2) (Homo sapiens (Human), UniProt P23921+P31350). The assay can be described thus: RNR enzyme activity, rapid-fire mass spectrometry (RFMS) assay. Particulars: [RNR] 50 nM, 1:1 RNR1:RNR2, [CDP] 5 μM, [ATP] 1 mM, 37° C., 45 min. The format is biochemical. The procedure:
A rapid-fire mass spectrometry (RFMS) assay was used to assess RNR enzyme activity using a 384 well plate and a robotic platform.
The plate layout included two validated reference compounds (Triapine (3-AP) and Hydroxyurea (HU)): • A dose response in duplicate; top concentration: 5 μM (3-AP) and 250 μM (HU), semi-log • dilutions. • Spike wells in triplicate randomly spotted at four concentrations: • 250 μM, 100 μM, 30 μM and 2 μM for HU • 5 μM, 2 μM, 0.6 μM and 0.04 μM for 3-AP
First, the multidrop pipes were saturated for 30 minutes with enzymatic solution. Then 30 μL of Stop solution was distributed in column 24. Next, 15 μL of enzyme was distributed in column 1 to 24. Next, a pre-incubation step of 15 minutes at room temperature occurred, followed by distribution of 15 μL of substrate solution (column 1 to 24). Next, the plate was incubated for 45 minutes at 37° C. 30 μL of Stop solution was distributed to columns 1 to 23.
The final parameters for the enzyme reactions were: • Incubation: 37° C., 45 min • [CDP]: 5 μM; [ATP]: 1 mM; [NADPH]: No • [RNR]final: 50 nM with 1:1 (RNR1:RNR2) ratio • Final volume: 30 μL • Stop solution: 6% HCOOH containing 2 μM of 15
The compounds were screened at concentrations from 10 nM to 30 μM.

In assay [2] the test system is pCHK1 (S345) in Colo320 DM cells. Briefly: CHK1 cellular activity (phospho-CHK1 AlphaLisa). Type of assay: cell-based, human. The conditions noted are these: Homo sapiens, COLO 320DM, 16 h, compound overnight (approximately 16 hours). The method, then:
Phospho-CHK1 cellular activity was measured as a marker of replication stress which is a consequence of RNR inhibition.
Colo320 DM cells (ATCC #CCL-220, derived from human colorectal adenocarcinoma, Dukes' type C) were seeded on a 96-well cell culture treated assay plate at a density of 50,000 cells/well in 200 μL of RPMI-1640 media supplemented with 10% Fetal Bovine Serum and incubated at 37 degrees Celsius overnight. The following day, test compound dilutions were added directly to the plated cells by a Tecan digital dispenser to a final DMSO concentration of <0.5% and incubated at 37 degrees Celsius overnight (approximately 16 hours). The following day all culture media is removed from the cells. 75 μL of 1× AlphaLisa lysis buffer is added to each well and plates are agitated on a shaker for 30 minutes at room temperature. The lysis of cells and detection of pCHK1 (S345) are performed with reagents contained within the AlphaLisa Sure Fire assay kit (Perkin Elmer #ALSU-PCHK1-A) according to the manufacturer's instructions. 10 μL of each lysate was then transferred to a white, 384-well assay plate (Perkin Elmer #6008280). 5 μL of Acceptor mix was then added to each well of lysate in the white, 384-well assay plate and incubated in the dark at room temperature for 60 minutes. 5 μL of Donor mix was then added to each well of the white, 384-well assay plate in subdued light and incubated at room temperature for 60 minutes. Plates are read on an Alpha Technology-compatible plate reader using standard AlphaLisa settings.
In general terms: Bead proximity is the source of the signal in Alpha formats.

RNR (RNR1:RNR2), sequence (P23921 whole entry): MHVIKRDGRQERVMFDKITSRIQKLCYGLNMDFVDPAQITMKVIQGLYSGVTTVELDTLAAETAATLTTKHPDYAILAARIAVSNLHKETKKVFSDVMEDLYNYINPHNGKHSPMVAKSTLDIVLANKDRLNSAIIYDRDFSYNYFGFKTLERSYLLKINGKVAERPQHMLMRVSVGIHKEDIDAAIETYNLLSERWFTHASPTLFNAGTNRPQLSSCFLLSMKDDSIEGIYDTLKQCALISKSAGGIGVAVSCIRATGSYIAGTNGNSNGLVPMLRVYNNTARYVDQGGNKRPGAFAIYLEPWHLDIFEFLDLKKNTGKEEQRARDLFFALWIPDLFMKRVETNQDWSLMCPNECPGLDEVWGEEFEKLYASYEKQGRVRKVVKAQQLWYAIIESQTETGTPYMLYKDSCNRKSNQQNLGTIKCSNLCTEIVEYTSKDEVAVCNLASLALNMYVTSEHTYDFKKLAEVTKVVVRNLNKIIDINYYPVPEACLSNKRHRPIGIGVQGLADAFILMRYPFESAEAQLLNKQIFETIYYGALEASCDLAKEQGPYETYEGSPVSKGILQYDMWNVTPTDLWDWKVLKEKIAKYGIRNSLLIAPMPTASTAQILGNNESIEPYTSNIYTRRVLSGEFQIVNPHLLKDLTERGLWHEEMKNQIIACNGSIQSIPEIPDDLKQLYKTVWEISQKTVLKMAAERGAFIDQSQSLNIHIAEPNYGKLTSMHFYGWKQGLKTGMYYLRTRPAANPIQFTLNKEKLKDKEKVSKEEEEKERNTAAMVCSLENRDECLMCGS
RNR (RNR1:RNR2), sequence (P31350 whole entry): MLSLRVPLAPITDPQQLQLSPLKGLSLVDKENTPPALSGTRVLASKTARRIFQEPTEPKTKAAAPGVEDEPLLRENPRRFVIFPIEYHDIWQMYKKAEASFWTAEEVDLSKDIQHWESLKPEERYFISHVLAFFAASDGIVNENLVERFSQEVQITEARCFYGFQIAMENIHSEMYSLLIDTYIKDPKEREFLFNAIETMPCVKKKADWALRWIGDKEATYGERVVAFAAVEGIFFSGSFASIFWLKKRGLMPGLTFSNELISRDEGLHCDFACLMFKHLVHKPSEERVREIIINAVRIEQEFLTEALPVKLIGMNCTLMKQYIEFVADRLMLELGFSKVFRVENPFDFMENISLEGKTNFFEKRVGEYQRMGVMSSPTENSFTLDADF

In the case of `Cc1ccc(F)c([C@@H](C)[C@H](NS(=O)(=O)C2CCCCC2)c2nn[nH]n2)c1C` [Example 8, N-((1S,4S)-2-(6-fluoro-2,3-dimethylphenyl)-1-(2H-tetraozl-5-yl)propyl)cyclohexanesulfonamide], the values for the pIC50 in assay [1] and in assay [2] were 5.30 to 6.00 and 4.00 to 4.30, respectively.
With `Cc1ccc(F)c([C@@H](C)[C@H](NS(=O)(=O)c2ccc(Cl)c3c2OCCC3=O)c2nn[nH]n2)c1C` [Example 9, 5-chloro-N-((1S,2R)-2-(6-fluoro-2,3-dimethylphenyl)-1-(2H-tetrazol-5-yl)propyl)-4-oxochromane-8-sulfonamide], the pIC50 was at least 7.00 in assay [1] and 4.00 to 4.30 in assay [2].
`Cc1ccc(F)c([C@@H](C)[C@H](NS(=O)(=O)c2ccc(Cl)c3c2OCC[C@@H]3O)c2nn[nH]n2)c1C` [Example 10, (S)-5-chloro-N-((1S,2R)-2-(6-fluoro-2,3-dimethylphenyl)-1-(2H-tetrazol-5-yl)propyl)-4-hydroxychromane-8-sulfonamide]: the figures for the negative logarithm of the IC50 (pIC50) in assay [1] and in assay [2] were at least 7.00 and 4.00 to 4.30, respectively.
As to `Cc1ccc(F)c([C@@H](C)[C@H](NS(=O)(=O)c2ccc(Cl)c3c2OCC[C@H]3O)c2nn[nH]n2)c1C` [Example 11, (R)-5-chloro-N-((1S,2R)-2-(6-fluoro-2,3-dimethylphenyl)-1-(2H-tetrazol-5-yl)propyl)-4-hydroxychromane-8-sulfonamide], the negative-log IC50 (pIC50) in assay [1] is at least 7.00; in assay [2], 4.00 to 4.30.
As for `[2H]C([2H])([2H])[C@@]1(O)CCOc2c(S(=O)(=O)N[C@H](c3nn[nH]n3)[C@H](C)c3c(F)ccc(C)c3C)ccc(Cl)c21` [Example 12, (R)-5-chloro-N-((1S,2R)-2-(6-fluoro-2,3-dimethylphenyl)-1-(2H-tetrazol-5-yl)propyl)-4-hydroxy-4-(methyl-d3)chromane-8-sulfonamide], the pIC50 in assay [1] is at least 7.00; in assay [2], 4.52 to 5.00.
For the compound `Cc1ccc(F)c([C@@H](C)[C@H](NS(=O)(=O)c2ccc(Cl)cc2CC(=O)O)c2nn[nH]n2)c1C` [Example 18, 2-(5-chloro-2-(N-((1S,2R)-2-(6-fluoro-2,3-dimethylphenyl)-1-(2H-tetrazol-5-yl)propyl)sulfamoyl)phenyl)acetic acid], the pIC50 in assay [1] was at least 7.00; in assay [2], 4.00 to 4.30.
The corresponding values for `Cc1ccc(F)c([C@@H](C)[C@H](NS(=O)(=O)c2ccc(Cl)cc2F)c2nn[nH]n2)c1C` [Example 19, 4-chloro-2-fluoro-N-((1S,2R)-2-(6-fluoro-2,3-dimethylphenyl)-1-(2H-tetrazol-5-yl)propyl)benzenesulfonamide] are 6.00 to 7.00 and 4.52 to 5.00.
The corresponding values for `CCc1cc(Cl)ccc1S(=O)(=O)N[C@H](c1nn[nH]n1)[C@H](C)c1c(F)ccc(C)c1C` [Example 20, 4-chloro-2-ethyl-N-((1S,2R)-2-(6-fluoro-2,3-dimethylphenyl)-1-(2H-tetrazol-5-yl)propyl)benzenesulfonamide] are 6.00 to 7.00 and 4.30 to 4.52.
For the compound `Cc1ccc(F)c([C@@H](C)[C@H](NS(=O)(=O)c2ccc(Cl)cc2C(F)(F)F)c2nn[nH]n2)c1C` [Example 21, 4-chloro-N-((1S,2R)-2-(6-fluoro-2,3-dimethylphenyl)-1-(2H-tetrazol-5-yl)propyl)-2-(trifluoromethyl)benzenesulfonamide], the values for the pIC50 in assay [1] and in assay [2] were 6.00 to 7.00 and 4.00 to 4.30, respectively.
`Cc1ccc(F)c([C@@H](C)[C@H](NS(=O)(=O)c2ccc(Cl)cc2CC(=O)N(C)C)c2nn[nH]n2)c1C` [Example 22, 2-(5-chloro-2-(N-((1S,2R)-2-(6-fluoro-2,3-dimethylphenyl)-1-(2H-tetrazol-5-yl)propyl)sulfamoyl)phenyl)-N,N-dimethylacetamide]: the pIC50 is 6.00 to 7.00 in assay [1] and 4.30 to 4.52 in assay [2].
Take `Cc1ccc(F)c([C@@H](C)[C@H](NS(=O)(=O)c2ccc(Cl)cc2CC(N)=O)c2nn[nH]n2)c1C` [Example 23, 2-(5-chloro-2-(N-((1S,2R)-2-(6-fluoro-2,3-dimethylphenyl)-1-(2H-tetrazol-5-yl)propyl)sulfamoyl)phenyl)acetamide]: the negative logarithm of the IC50 (pIC50) is 6.00 to 7.00 in assay [1] and 4.00 to 4.30 in assay [2].
Take `Cc1ccc(F)c([C@@H](C)[C@H](NS(=O)(=O)c2ccc(Cl)cc2CC(=O)N2CCCCC2)c2nn[nH]n2)c1C` [Example 24, 4-chloro-N-((1S,2R)-2-(6-fluoro-2,3-dimethylphenyl)-1-(2H-tetrazol-5-yl)propyl)-2-(2-oxo-2-(piperidin-1-yl)ethyl)benzenesulfonamide]: the pIC50 is 6.00 to 7.00 in assay [1] and 4.52 to 5.00 in assay [2].
Consider `Cc1cc(Cl)ccc1S(=O)(=O)N[C@H](c1nn[nH]n1)[C@H](C)c1c(F)ccc(C)c1C` [Example 25, 4-chloro-N-((1S,2R)-2-(6-fluoro-2,3-dimethylphenyl)-1-(2H-tetrazol-5-yl)propyl)-2-methylbenzenesulfonamide], for which the pIC50 is 6.00 to 7.00 in assay [1] and 4.52 to 5.00 in assay [2].
The corresponding values for `Cc1ccc(F)c([C@@H](C)[C@H](NS(=O)(=O)c2ccc(Cl)cc2CC(=O)N2CCOCC2)c2nn[nH]n2)c1C` [Example 26, 4-chloro-N-((1S,2R)-2-(6-fluoro-2,3-dimethylphenyl)-1-(2H-tetrazol-5-yl)propyl)-2-(2-morpholino-2-oxoethyl)benzenesulfonamide] are 6.00 to 7.00 and 4.00 to 4.30.
The corresponding values for `Cc1ccc(F)c([C@@H](C)[C@H](NS(=O)(=O)c2ccc(Cl)cc2OC(F)F)c2nn[nH]n2)c1C` [Example 27, 4-chloro-2-(difluoromethoxy)-N-((1S,2R)-2-(6-fluoro-2,3-dimethylphenyl)-1-(2H-tetrazol-5-yl)propyl)benzenesulfonamide] are at least 7.00 and 4.52 to 5.00.
Turning to `Cc1ccc(F)c([C@@H](C)[C@H](NS(=O)(=O)c2c(Cl)cc(Cl)c3c2OCCN3C)c2nn[nH]n2)c1C` [Example 28, 5,7-dichloro-N-((1S,2R)-2-(6-fluoro-2,3-dimethylphenyl)-1-(2H-tetrazol-5-yl)propyl)-4-methyl-3,4-dihydro-2H-benzo[b][1,4]oxazine-8-sulfonamide], the negative-log IC50 (pIC50) in assay [1] was at least 7.00; in assay [2], 4.00 to 4.30.
Consider `Cc1ccc(F)c([C@@H](C)[C@H](NS(=O)(=O)c2ccc(Cl)c3c2OCCN3C)c2nn[nH]n2)c1C` [Example 29, 5-chloro-N-((1S,2R)-2-(6-fluoro-2,3-dimethylphenyl)-1-(2H-tetrazol-5-yl)propyl)-4-methyl-3,4-dihydro-2H-benzo[b][1,4]oxazine-8-sulfonamide], for which the values for the pIC50 in assay [1] and in assay [2] were at least 7.00 and at least 5.00, respectively.
On to `Cc1ccc(F)c([C@@H](C)[C@H](NS(=O)(=O)c2ccc(Cl)cc2OC(F)(F)F)c2nn[nH]n2)c1C` [Example 30, 4-chloro-N-((1S,2R)-2-(6-fluoro-2,3-dimethylphenyl)-1-(2H-tetrazol-5-yl)propyl)-2-(trifluromethoxy)benzenesulfonamdie], for which the figures for the pIC50 in assay [1] and in assay [2] were at least 7.00 and 4.52 to 5.00, respectively.
The like results for `Cc1cc(S(=O)(=O)N[C@H](c2nn[nH]n2)[C@H](C)c2c(F)ccc(C)c2C)c(C)cc1Cl` [Example 31, 4-chloro-N-((1S,2R)-2-(6-fluoro-2,3-dimethylphenyl)-1-(2H-tetrazol-5-yl)propyl)-2,5-dimethylbenzenesulfonamide] were, in that order, 5.30 to 6.00 and 4.00 to 4.30.
The like results for `Cc1ccc(F)c([C@@H](C)[C@H](NS(=O)(=O)c2ccc(Cl)c(Cl)c2)c2nn[nH]n2)c1C` [Example 32, 3,4-dichloro-N-((1S,2R)-2-(6-fluoro-2,3-dimethylphenyl)-1-(2H-tetrazol-5-yl)propyl)benzenesulfonamide] were, in that order, 6.00 to 7.00 and 4.00 to 4.30.
As to `Cc1ccc(F)c([C@@H](C)[C@H](NS(=O)(=O)c2ccc(Cl)cc2)c2nn[nH]n2)c1C` [Example 33, 4-chloro-N-((1S,2R)-2-(6-fluoro-2,3-dimethylphenyl)-1-(2H-tetrazol-5-yl)propyl)benzenesulfonamide], the pIC50 in assay [1] was 6.00 to 7.00; in assay [2] it was 4.30 to 4.52.

For orientation: pIC50 means the negative decadic logarithm of the IC50, by convention in mol/L.

The values above are taken from patent publication US20240158383A1, “RIBONUCLEOTIDE REDUCTASE (RNR) INHIBITORS AND USES THEREOF” (Boundless Bio, Inc., priority 2021, published 2024).
